Values quoted from earlier work in patent publication US20220047856A1, “HYDROGEL FOR IN-VIVO DIRECTIONAL RELEASE OF MEDICATION” (UMC Utrecht Holding B.V., priority 2018, published 2022).

Settings: local anaesthetic, conventional bupivacaine

In the case of CCCCN1CCCCC1C(=O)Nc1c(C)cccc1C (stereo not shown) [Bupi, Bupivacaine], the “duration of its effect” value is given as “approx. 8 hours”.
